Like-named read-outs stand apart in the source and are kept apart here.
Experiments:
GST-Bcl-2 = GST-Bcl-2 (Homo sapiens, UniProt P10415); experiment: TR-FRET Bcl-2 binding assay (F-Bak peptide probe); settings: GST-Bcl-2 1 nM, F-Bak peptide probe 100 nM, Tb-anti-GST 1 nM; Wang's equation; '<' = below limit of detection
Experimental: Determination of the utility of compounds of this invention as binders to and inhibitors of anti-apoptotic Bcl-2 proteins was performed using the Time Resolved-Fluorescence Resonance Energy Transfer (TR-FRET) Assay. Tb-anti-GST antibody was purchased from Invitrogen (Catalog No. PV4216).
Representative compounds were serially diluted in dimethyl sulfoxide (DMSO) starting at 50 μM (2× starting concentration; 10% DMSO) and 10 μL were transferred into a 384-well plate. The samples are then mixed on a shaker for 1 minute and incubated for an additional 3 hours at room temperature. For each assay, the probe/antibody and protein/probe/antibody were included on each assay plate as negative and positive controls, respectively. Fluorescence was measured on the Envision (Perkin Elmer) using a 340/35 nm excitation filter and 520/525 (F-Bak peptide) and 495/510 nm (Tb-labeled […] antibody) emission filters. Dissociation constants (Ki) are shown in TABLE 2 below and were determined using Wang's equation (Wang Z.-X., An Exact Mathematical Expression For Describing Competitive Binding Of Two Different Ligands To A Protein Molecule. FEBS Lett. 1995, 360:111-4).
The samples were then mixed on a shaker for 1 minute and incubated for an additional 3 hours at room temperature. For each assay, the probe/antibody and protein/probe/antibody were included on each assay plate as negative and positive controls, respectively. Fluorescence was measured on the Envision (Perkin Elmer) using a 340/35 nm excitation filter and 520/525 (F-Bak peptide) and 495/510 nm (Tb-labeled anti-Histidine antibody) emission filters.
Inhibition constants (Ki) for compounds were determined using Wang's equation (Wang Zx. An Exact Mathematical Expression For Describing Competitive Binding Of Two Different Ligands To A Protein Molecule. FEBS Lett. 1995, 360:111-4).
The inhibition constant (Ki) is the dissociation constant of an enzyme-inhibitor complex or a protein/small molecule complex, wherein the small molecule is inhibiting binding of one protein to another protein or peptide. So a large Ki value indicates a low binding affinity and a small Ki value indicates a high binding affinity. […] The compounds are therefore expected to have utility in treatment of diseases during which anti-apoptotic Bcl-2 protein is expressed. Biological Data

RS4;11 cells = experiment: RS4;11 cell viability assay (CellTiter Glo); format: cell-based; settings: 10% human serum, 48 hours
Text: The acute lymphoblastic leukemia (ALL) cell line RS4;11 was used as the primary human cell line to assess the cellular activity of Bcl-2 selective agents in vitro and their efficacy in vivo. Previous studies have shown by BH3 profiling, a mitochondrial assay that classifies blocks in the intrinsic apoptotic pathway, that RS4;11 cells were highly dependant on BCL-2 for survival and sensitive to the Bcl-2 family member inhibitor ABT-737 (Blood, 2008, Vol. 111, 2300-2309).
RS4;11 cells were cultured in RPMI-1640 supplemented with 2 mM L-glutamine, 10% FBS, 1 mM sodium pyruvate, 2 mM HEPES, 1% penicillin/streptomycin (Invitrogen), 4.5 g/L glucose and maintained at 37 C containing 5% CO2. To test for the cellular activity of compounds in vitro, cells were treated at 50,000 cells per well in 96-well microtiter plates in the presence of 10% human serum for 48 hours in a humidified chamber with 5% CO2. Cell cytotoxicity EC50 values were assessed using CellTiter Glo (Promega) according to the manufacturer's recommendations. The EC50 values were determined as a percentage of viable cells following treatment compared to the untreated control cells.

lymphocytes = experiment: Lymphocyte reduction in C57BL/6 mice; format: in vivo; settings: Mus musculus, ip
Experimental: An experiment was performed to evaluate the effect of Bcl-2 selective/Bcl-xL sparing compounds on immune cells and platelets, as evaluated in C57Bl/6 mice. Mice were treated four days with compounds (doses of 30 mg/kg, administered by intraperitoneal injection every day) and cell numbers were measured with a Cell Dyn hematology analyzer 24 hours after the first and last doses. Exposure of the compound (area under the curve) was calculated by using time points of 1, 6, 10 and 24 hours after the last dose.

[1] = 30 mg/kg intraperitoneal every day for four days, 24 hours after the last dose, read-out: Lymphocyte reduction % inh. day 4
[2] = 30 mg/kg intraperitoneal every day, 24 hours after the first dose, read-out: Lymphocyte reduction % inh. day 1

Sequence of GST-Bcl-2 (P10415 whole entry): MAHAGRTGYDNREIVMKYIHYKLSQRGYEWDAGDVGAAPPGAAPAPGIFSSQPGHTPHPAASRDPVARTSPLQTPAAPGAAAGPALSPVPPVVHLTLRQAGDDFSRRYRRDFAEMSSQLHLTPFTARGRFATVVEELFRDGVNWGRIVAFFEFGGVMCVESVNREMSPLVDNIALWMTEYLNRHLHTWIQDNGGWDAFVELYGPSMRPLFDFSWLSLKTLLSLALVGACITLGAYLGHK

| Structure (SMILES) | Ki (GST-Bcl-2) [nM] | EC50 (RS4;11 cells) [nM] | inhibition at 30 mg/kg (lymphocytes; [1]) [%] | inhibition at 30 mg/kg (lymphocytes; [2]) [%] |
| --- | --- | --- | --- | --- |
| CC1(C)CCC(CN2CCN(c3ccc(C(=O)NS(=O)(=O)c4ccc(NC[C@H]5C[C@@H](C#N)C5)c([N+](=O)[O-])c4)c(Oc4cnc5[nH]ccc5c4)c3)CC2)=C(c2ccc(Cl)cc2)C1 [Example 42, 4-(4-{[2-(4-chlorophenyl)-4,4-dimethylcyclohex-1-en-1-yl]methyl}piperazin-1-yl)-N-[(4-{[(cis-3-cyanocyclobutyl)methyl]amino}-3-nitrophenyl)sulfonyl]-2-(1H-pyrrolo[2,3-b]pyridin-5-yloxy)benzamide] | < 0.1 | 56 |  |  |
| CC1(C)CCC(CN2CCN(c3ccc(C(=O)NS(=O)(=O)c4ccc(NCC5CCC6(CC5)OCCO6)c([N+](=O)[O-])c4)c(Oc4cnc5[nH]ccc5c4)c3)CC2)=C(c2ccc(Cl)cc2)C1 [Example 7, 4-(4-{[2-(4-chlorophenyl)-4,4-dimethylcyclohex-1-en-1-yl]methyl}piperazin-1-yl)-N-({4-[(1,4-dioxaspiro[4.5]dec-8-ylmethyl)amino]-3-nitrophenyl}sulfonyl)-2-(1H-pyrrolo[2,3-b]pyridin-5-yloxy)benzamide] |  | 6.8 | 55 | 64 |
| CC1(C)CCC(CN2CCN(c3ccc(C(=O)NS(=O)(=O)c4ccc(NC56CC7CC(CC(O)(C7)C5)C6)c([N+](=O)[O-])c4)c(Oc4cnc5[nH]ccc5c4)c3)CC2)=C(c2ccc(Cl)cc2)C1 [Example 13, 4-(4-{[2-(4-chlorophenyl)-4,4-dimethylcyclohex-1-en-1-yl]methyl}piperazin-1-yl)-N-({4-[(3-hydroxytricyclo[3.3.1.1^3,7]dec-1-yl)amino]-3-nitrophenyl}sulfonyl)-2-(1H-pyrrolo[2,3-b]pyridin-5-yloxy)benzamide] |  | 130 |  |  |
| C[C@H](Nc1ccc(S(=O)(=O)NC(=O)c2ccc(N3CCN(CC4=C(c5ccc(Cl)cc5)CC(C)(C)CC4)CC3)cc2Oc2cnc3[nH]ccc3c2)cc1[N+](=O)[O-])C1CCOCC1 [Example 2, 4-(4-{[2-(4-chlorophenyl)-4,4-dimethylcyclohex-1-en-1-yl]methyl}piperazin-1-yl)-N-[(3-nitro-4-{[(1S)-1-(tetrahydro-2H-pyran-4-yl)ethyl]amino}phenyl)sulfonyl]-2-(1H-pyrrolo[2,3-b]pyridin-5-yloxy)benzamide] |  | 160 | < 15 | < 15 |
| C[C@H]1CO[C@@H](CNc2ccc(S(=O)(=O)NC(=O)c3ccc(N4CCN(CC5=C(c6ccc(Cl)cc6)CC(C)(C)CC5)CC4)cc3Oc3cnc4[nH]ccc4c3)cc2[N+](=O)[O-])CO1 [Example 45, 4-(4-{[2-(4-chlorophenyl)-4,4-dimethylcyclohex-1-en-1-yl]methyl}piperazin-1-yl)-N-{[4-({[(2S,5S)-5-methyl-1,4-dioxan-2-yl]methyl}amino)-3-nitrophenyl]sulfonyl}-2-(1H-pyrrolo[2,3-b]pyridin-5-yloxy)benzamide] | < 0.1 | 19 |  |  |
| COC(=O)C1(CNc2ccc(S(=O)(=O)NC(=O)c3ccc(N4CCN(CC5=C(c6ccc(Cl)cc6)CC(C)(C)CC5)CC4)cc3Oc3cnc4[nH]ccc4c3)cc2[N+](=O)[O-])CCOCC1 [Example 17, methyl 4-{[(4-{[4-(4-{[2-(4-chlorophenyl)-4,4-dimethylcyclohex-1-en-1-yl]methyl}piperazin-1-yl)-2-(1H-pyrrolo[2,3-b]pyridin-5-yloxy)benzoyl]sulfamoyl}-2-nitrophenyl)amino]methyl}tetrahydro-2H-pyran-4-carboxylate] |  | 85 |  |  |
| CC1(C)CCC(CN2CCN(c3ccc(C(=O)NS(=O)(=O)c4ccc(NC[C@@H]5CCCOCC5)c([N+](=O)[O-])c4)c(Oc4cnc5[nH]ccc5c4)c3)CC2)=C(c2ccc(Cl)cc2)C1 [Example 19, 4-(4-{[2-(4-chlorophenyl)-4,4-dimethylcyclohex-1-en-1-yl]methyl}piperazin-1-yl)-N-[(3-nitro-4-{[(4R)-oxepan-4-ylmethyl]amino}phenyl)sulfonyl]-2-(1H-pyrrolo[2,3-b]pyridin-5-yloxy)benzamide] |  | 14 | 45 | 49 |
| CC1(C)CCC(CN2CCN(c3ccc(C(=O)NS(=O)(=O)c4ccc(NCC5(F)COCCOC5)c([N+](=O)[O-])c4)c(Oc4cnc5[nH]ccc5c4)c3)CC2)=C(c2ccc(Cl)cc2)C1 [Example 39, 4-(4-{[2-(4-chlorophenyl)-4,4-dimethylcyclohex-1-en-1-yl]methyl}piperazin-1-yl)-N-[(4-{[(6-fluoro-1,4-dioxepan-6-yl)methyl]amino}-3-nitrophenyl)sulfonyl]-2-(1H-pyrrolo[2,3-b]pyridin-5-yloxy)benzamide] |  | 40 |  |  |
| CC1(C)CCC(CN2CCN(c3ccc(C(=O)NS(=O)(=O)c4ccc(NCC5CCOCC5)c([N+](=O)[O-])c4)c(Oc4cnc5[nH]ccc5c4)c3)CC2)=C(c2ccc(C3CC3)cc2)C1 [Example 52, 4-(4-{[2-(4-cyclopropylphenyl)-4,4-dimethylcyclohex-1-en-1-yl]methyl}piperazin-1-yl)-N-({3-nitro-4-[(tetrahydro-2H-pyran-4-ylmethyl)amino]phenyl}sulfonyl)-2-(1H-pyrrolo[2,3-b]pyridin-5-yloxy)benzamide] |  | 16 | 51 | 54 |
| CC1(C)CCC(CN2CCN(c3ccc(C(=O)NS(=O)(=O)c4ccc(NCC5CCOCC5)c([N+](=O)[O-])c4)c(Oc4cnc5[nH]ccc5c4)c3)CC2)=C(c2ccc(Cl)cc2F)C1 [Example 48, 4-(4-{[2-(4-chloro-2-fluorophenyl)-4,4-dimethylcyclohex-1-en-1-yl]methyl}piperazin-1-yl)-N-({3-nitro-4-[(tetrahydro-2H-pyran-4-ylmethyl)amino]phenyl}sulfonyl)-2-(1H-pyrrolo[2,3-b]pyridin-5-yloxy)benzamide] |  | 3.3 | 78 | 76 |
| CC1(C)CCC(CN2CCN(c3ccc(C(=O)NS(=O)(=O)c4ccc(NCC5CCOCC5)c([N+](=O)[O-])c4)c(Oc4cnc5[nH]ccc5c4)c3)CC2)=C(c2ccc(Cl)c(F)c2)C1 [Example 49, 4-(4-{[2-(4-chloro-3-fluorophenyl)-4,4-dimethylcyclohex-1-en-1-yl]methyl}piperazin-1-yl)-N-({3-nitro-4-[(tetrahydro-2H-pyran-4-ylmethyl)amino]phenyl}sulfonyl)-2-(1H-pyrrolo[2,3-b]pyridin-5-yloxy)benzamide] |  | 46 |  |  |
| CC1(C)CCC(CN2CCN(c3ccc(C(=O)NS(=O)(=O)c4ccc(NCC5CCOCC5)c([N+](=O)[O-])c4)c(Oc4cnc5[nH]ccc5c4)c3)CC2)=C(c2ccc(C(F)F)cc2)C1 [Example 54, 4-[4-({2-[4-(difluoromethyl)phenyl]-4,4-dimethylcyclohex-1-en-1-yl}methyl)piperazin-1-yl]-N-({3-nitro-4-[(tetrahydro-2H-pyran-4-ylmethyl)amino]phenyl}sulfonyl)-2-(1H-pyrrolo[2,3-b]pyridin-5-yloxy)benzamide] |  | 9.9 |  |  |
| CCC1(CNc2ccc(S(=O)(=O)NC(=O)c3ccc(N4CCN(CC5=C(c6ccc(Cl)cc6)CC(C)(C)CC5)CC4)cc3Oc3cnc4[nH]ccc4c3)cc2[N+](=O)[O-])CCOCC1 [Example 50, 4-(4-{[2-(4-chlorophenyl)-4,4-dimethylcyclohex-1-en-1-yl]methyl}piperazin-1-yl)-N-[(4-{[(4-ethyltetrahydro-2H-pyran-4-yl)methyl]amino}-3-nitrophenyl)sulfonyl]-2-(1H-pyrrolo[2,3-b]pyridin-5-yloxy)benzamide] |  | 52 |  |  |
